Measurements taken from ChEMBL document CHEMBL1201862, “PubChem BioAssay data set” (2004).
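96-well plates; 48 h exposure; 5 concentrations. Endpoints by linear interpolation between flanking doses. Not reached: highest tested concentration assigned. GI50 = concentration required for 50% inhibition of growth.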 The source made the active and inactive calls. No stated cut-off is given here; in the data, active = GI50 up to about 1.1 µM and inactive = higher.

What was measured:
Assay in all cases: NCI-60 cell line screen, 48 h
CAKI-1 = tested on: CAKI-1
DMS-273 = tested on: DMS-273
HCC 2998 = tested on: HCC 2998
HL-60 = tested on: HL-60
HT-29 = tested on: HT-29
K562 = tested on: K562
M14 = tested on: M14
NCI-H23 = tested on: NCI-H23
RXF 393 = tested on: RXF 393
SF-295 = tested on: SF-295
SK-MEL-5 = tested on: SK-MEL-5
SW-620 = tested on: SW-620
SF-539 = tested on: SF-539
HCT-116 = tested on: HCT-116
A498 = tested on: A498

Measured: GI50

CC(C)N1CCOC(c2ccc(O)c(O)c2)C1 (configuration not stated)
inactive: CAKI-1 > 100 µM | DMS-273 > 100 µM | HCC 2998 > 100 µM | HL-60 > 100 µM | HT-29 > 100 µM | K562 > 100 µM | M14 > 100 µM | NCI-H23 > 100 µM | RXF 393 > 100 µM | SF-295 > 100 µM | SK-MEL-5 > 100 µM | SW-620 > 100 µM

CC(C)(C)[C@H]1CO[C@]2(c3ccccc3)[C@@H]3C[C@@H]3C(=O)N12
inactive: CAKI-1 > 100 µM | DMS-273 > 100 µM | HCC 2998 > 100 µM | HL-60 > 100 µM | HT-29 > 100 µM | K562 > 10 µM | M14 > 100 µM | NCI-H23 > 100 µM | RXF 393 > 100 µM | SF-295 > 100 µM | SF-539 > 100 µM | SK-MEL-5 > 100 µM | SW-620 > 100 µM

NC(=S)N/N=C1/C(=O)N(c2ccc(Cl)cc2Cl)C(=O)C(=O)C1c1nc2ccccc2s1 (configuration not stated)
inactive: CAKI-1 > 100 µM | DMS-273 > 100 µM | HCC 2998 > 100 µM | HCT-116 > 100 µM | HT-29 > 100 µM | K562 > 100 µM | M14 > 100 µM | NCI-H23 > 100 µM | RXF 393 > 100 µM | SF-295 > 100 µM | SF-539 > 100 µM | SK-MEL-5 > 100 µM | SW-620 > 100 µM

CN(C(=O)C12C3C4C1C1C2C3C41I)C(C)(C)C (configuration not stated)
inactive: A498 53.8 µM | CAKI-1 > 100 µM | DMS-273 47 µM | HCC 2998 > 60 µM | HCT-116 70.1 µM | HL-60 33 µM | HT-29 > 95.1 µM | M14 > 100 µM | NCI-H23 > 96.6 µM | SF-295 > 100 µM | SF-539 > 100 µM | SK-MEL-5 > 63.1 µM | SW-620 > 100 µM

N#CC(C(=O)/C(=N/NC(=O)c1ccccc1O)C(C#N)c1ccccc1)c1ccccc1 (configuration not stated)
inactive: A498 > 100 µM | DMS-273 > 100 µM | HCC 2998 > 100 µM | HCT-116 > 100 µM | HT-29 > 100 µM | M14 > 100 µM | NCI-H23 > 100 µM | RXF 393 > 100 µM | SF-295 > 100 µM | SF-539 > 100 µM

O=c1[nH]cnc2c(COCCO)c[nH]c12
inactive: A498 > 100 µM | CAKI-1 > 100 µM | DMS-273 > 100 µM | HL-60 > 100 µM | HT-29 > 100 µM | K562 > 100 µM | M14 > 100 µM | NCI-H23 > 100 µM | RXF 393 > 100 µM | SF-295 > 100 µM | SF-539 > 100 µM | SK-MEL-5 > 100 µM | SW-620 > 100 µM

COC(=O)C(C(=O)Cc1ccccc1[N+](=O)[O-])C(=O)OC
inactive: CAKI-1 > 100 µM | DMS-273 > 100 µM | HCC 2998 > 100 µM | HCT-116 > 100 µM | HL-60 54.5 µM | HT-29 > 100 µM | M14 > 100 µM | NCI-H23 > 100 µM | RXF 393 > 100 µM | SF-295 42.2 µM | SF-539 > 100 µM | SK-MEL-5 > 100 µM | SW-620 > 100 µM

Cc1c(N)c(C#N)c2n(C)c3ncccc3n2c1=O
inactive: CAKI-1 > 100 µM | DMS-273 > 100 µM | HCC 2998 > 100 µM | HCT-116 > 100 µM | HL-60 > 100 µM | HT-29 > 100 µM | K562 > 100 µM | M14 > 100 µM | NCI-H23 > 100 µM | RXF 393 > 100 µM | SF-295 > 100 µM | SF-539 > 100 µM | SK-MEL-5 > 100 µM | SW-620 > 100 µM

CCOC(=O)C1(C(=O)OCC)C(C(C)(C)C)=C(C)c2ccccc21
inactive: DMS-273 12.1 µM | HCC 2998 16 µM | HCT-116 6.75 µM | HL-60 9.93 µM | HT-29 10.9 µM | K562 8.55 µM | M14 16.1 µM | NCI-H23 10.2 µM | RXF 393 13.5 µM | SF-295 11.7 µM | SF-539 18.2 µM | SK-MEL-5 9.59 µM | SW-620 15.3 µM

COC(=O)C1=CC2C(=O)OC1CC2C#N (configuration not stated)
inactive: A498 > 100 µM | CAKI-1 > 100 µM | DMS-273 > 100 µM | HCC 2998 > 100 µM | HCT-116 > 100 µM | HL-60 > 100 µM | HT-29 > 100 µM | K562 > 100 µM | M14 > 100 µM | NCI-H23 > 100 µM | SF-295 > 100 µM | SF-539 > 100 µM | SK-MEL-5 > 100 µM | SW-620 > 100 µM

CC(C)NCCCC(C)Nc1ccnc2ccc3nn(C)nc3c12 (configuration not stated)
inactive: A498 > 100 µM | CAKI-1 60.5 µM | DMS-273 41.7 µM | HCC 2998 57.9 µM | HCT-116 34.8 µM | HL-60 42.4 µM | HT-29 37.8 µM | K562 33.2 µM | M14 38.8 µM | NCI-H23 > 100 µM | SF-295 34.6 µM | SF-539 83.2 µM | SK-MEL-5 38.5 µM | SW-620 38.5 µM
